The values that follow come from patent publication US20110263693A1, “CELASTROL, GEDUNIN, AND DERIVATIVES THEREOF AS HSP90 INHIBITORS” (DANA-FARBER CANCER INSTITUTE, INC., priority 2006, published 2011).

The test system of one assay is EGFR. The experiment in a line: Western blot of HSP90 client EGFR level. It is filed as cell-based, human. As to conditions: 24 hr, several cell lines, concentration-dependent. As to the method:
(§1) To more broadly establish the effects of celastrol and gedunin on the HSP90 pathway, we tested whether these compounds decrease the protein levels of other HSP90 clients.
(§2) Celastrol (Calbiochem) and gedunin (Gaia Chemicals) were solubilized in DMSO. LNCaP.FGC cells (ATCC) were grown in RPMI 1640 (ATCC) with 10% FBS. Ba/F3 cells stably expressing human FLT3, EGFR, and BCR-ABL1 were grown in RPMI 1640, 10% FBS, and 2 ng/ml IL-3. SKBr3 cells were grown in a 1:1 DME:F12 plus 10% FBS.

The next assay has as its system FLT3. Description: Western blot of HSP90 client FLT3 level. The format is cell-based, human. As to conditions: for protein level of FLT3: 24 hr, several cell lines, concentration-dependent. As to the method: as §1, §2
Assay [1] deals with HSP90 interaction with the cochaperone p23. Description: HSP90 coimmunoprecipitation, p23. It is filed as cell-based. As to conditions: SKBR-3 cells; celastrol 2.5 μM, 12 hr. Here is the method: Geldanamycin and other HSP90 inhibitors are known to inhibit p23 association with HSP90 (Felts et al., 2003).
SKBR-3 cells were treated with vehicle, celastrol (2.5 μM, 12 hr), and PU24FCI (20 μM, 24 hr) (Vilenchik et al., 2004). Cells were lysed in 20 mM Tris HCl (pH 7.4), 25 mM NaCl, 2 mM DDT, 20 mM Na2MoO4, 0.1% NP-40, and […]. Lysates were incubated for 2 hr at 4° C., rotating, and then centrifuged at 13,000×g for 10 min. Protein (500 μg) was incubated with H9010 anti-HSP90 antibody for 1 hr at 4° C., rotating. Protein G agarose (30 μl; Upstate) was added to each sample, and samples were then incubated for 1 hr at 4° C., rotating. The beads were washed five times with 1 ml lysis buffer. Bound proteins were isolated by boiling in sample buffer. The levels of HSP90 and coimmunoprecipitating proteins were analyzed by western blot.

Another assay has as its system LNCaP cells. The experiment in a line: Soft agar assay of anchorage-independent growth. The format is cell-based. The following applies: for colony size in soft agar: LNCaP; for anchorage-independent growth of LNCaP cells (colony number): soft agar, celastrol 0.625 μM, compared with bicalutamide (casodex). As to the method: To investigate the cellular consequences of celastrol- and gedunin-mediated inhibition, we assessed whether celastrol and gedunin activity results in decreased cell growth, consistent with AR inhibition. […] Second, the compounds' effects on anchorage-independent growth of LNCaP cells was assayed in soft agar (FIG. 6D).
Adherent cell growth was measured by luminescent assay of ATP level (CellTiterGlo, Promega). LNCaP cells were grown in charcoal-stripped media for 2 days prior to simultaneous treatment with 1 nM R1881 and the relevant compound. Synergy was assessed by analyzing the IC50 of one drug over a range of concentrations of the other drug and vice versa. The resulting concentration pairs were visualized by isobologram (Gessner, 1995). Anchorage independence was measured by soft agar assay (Hahn et al., 1999). Compounds were added to both agar layers. Colonies were scored after 3 weeks.

Assay [2] deals with androgen signaling signature in LNCaP cells. The experiment in a line: GE-HTS androgen signaling signature assay / screen. As to conditions: LNCaP; for effect on the GE-HTS androgen signaling signature outside the screen: with and without 12 hours androgen pretreatment.
For assay [3], the target named is T1, HSP90α (Homo sapiens, UniProt P07900). The experiment in a line: HSP90 ATP-binding assay (ATP-polyacrylamide pulldown from lysates of treated cells). The format is cell-based. Further details: endogenous in cells; host or cells: LNCaP and K562. The following applies: LNCaP and K562 cells treated 24 hr. Here is the method: Given their inhibition of HSP90 clients, we next asked whether celastrol and gedunin affect HSP90 activity itself. To assess the effects on HSP90 activity within a cellular context, we treated LNCaP and K562 cells with celastrol or gedunin for 24 hr and subsequently tested the cellular HSP90's ATP-binding activity. ATP-binding activity was assayed by ATP-polyacrylamide pulldown of HSP90 from cell lysates, followed by western blot-based quantification (Bali et al., 2005). This assay identifies HSP90 inhibition, both direct and indirect, that alters HSP90 ATP-binding activity in cell lines (Bali et al., 2005, Soti et al., 2002). […] The decrease in ATP binding by HSP90 cannot be accounted for by changes in HSP90 level (FIG. 7E). Celastrol and gedunin therefore inhibit HSP90 activity itself in a cellular context, either directly or indirectly.
The ATP-binding assay was similar to that in previous reports (Bali et al., 2005, Soti et al., 2002). LNCaP and K562 cells were treated with celastrol and gedunin for 24 hr and then lysed in TNESV buffer (50 mM Tris, 2 mM EDTA, […], 1 mM activated sodium orthovanadate, 25 mM NaF, 1% Triton X-100 [pH 7.5]) for 30 min at 4° C. Lysates were spun for 30 min at 12,000 rpm at 4° C. […]

The target in assay [4] is T1, HSP90α. Description: Geldanamycin competition assay (Cy3B-geldanamycin fluorescence polarization). It is filed as binding. Further details: purchased Stressgen SPP776 / SPP-776. The following applies: celastrol and gedunin at concentrations up to ~100 μM. As to the method: We first tested whether celastrol or gedunin could compete with Cy3B-geldanamycin for binding to the ATP-binding pocket of purified HSP90α by fluorescence polarization assay (Kim et al., 2004, Llauger-Bufi et al., 2003).
The geldanamycin competition assay was performed as described (He et al., 2006, Kim et al., 2004), except that Cy3B-geldanamycin rather than BODIPY-geldanamycin was used as described herein.
Measurements were taken in black 96-well microtiter plates (Coming #3650). The assay buffer (HFB) contained 20 mM HEPES (K) pH 7.3, 50 mM KCl, 5 mM MgCl2, 20 mM Na2MoO4, 0.01% NP40. Before each use, 0.1 mg/mL bovine gamma globulin (BGG) (Panvera Corporation, Madison, Wis.) and 2 mM DTT (Fisher Biotech, Fair Lawn, N.J.) were freshly added. GM-cy3B was synthesized as previously reported and was dissolved in DMSO to form 10 μM solutions. Cell lysates were prepared rupturing cellular membranes by freezing at −70° C. and dissolving the cellular extract in HFB with added protease and phosphotase inhibitors. Saturation curves were recorded in which GM-cy3B (3 nM) was treated with increasing amounts of cellular lysates.
Background: Fluorescence polarisation rises when a labelled molecule tumbles more slowly, as on binding a larger partner.

Assay [5] relates to LNCaP prostate cancer cell. Description: Apoptosis induction in LNCaP cells. It is filed as cell-based. The following applies: at higher concentrations. The source says:
We also addressed whether celastrol and gedunin activity results in decreased cell growth consistent with inhibition of AR and other HSP90 clients. […] Below this concentration, an intermediate viability inhibition is seen.

As for `CC1=C(O)C(=O)C=C2C1=CC=C1[C@@]2(C)CC[C@@]2(C)[C@@H]3C[C@](C)(C(=O)O)CC[C@]3(C)CC[C@]12C` [celastrol], in the assay with EGFR, the “protein level of EGFR” value was “lowered the protein levels”. In addition, the “protein level of FLT3” value in the assay on FLT3 is on record as “lowered the protein levels”. For the same compound, the “HSP90 interaction with cochaperone p23 (coimmunoprecipitation)” value in assay [1] was “reduced HSP90 interaction with the cochaperone p23”. For the same compound, in the assay on LNCaP cells, the “colony size in soft agar” value is recorded as “inhibited colony size” and the “anchorage-independent growth of LNCaP cells (colony number)” value was “inhibited anchorage-independent growth to a similar degree as the AR competitive antagonist bicalutamide (casodex)”. Further, in assay [2], the “effect on the GE-HTS androgen signaling signature outside the screen” value is “inhibit the GE-HTS androgen signaling signature in a concentration-dependent manner”. The “inhibition of the androgen signaling signature in the GE-HTS screen (strong / weak)” value in assay [2] (~20 μM, 24 hr) was “strong inhibition”. Further, the “ATP-binding activity of HSP90α” value at HSP90α [3] was “inhibited the ATP-binding activity”. Further, at HSP90α [4], the “competition with Cy3B-geldanamycin for binding to the ATP-binding pocket of HSP90α” value is on record as “Neither celastrol nor gedunin significantly competed”. The “apoptosis in LNCaP cells” value in assay [5] is given as “induce apoptosis”.

On to `CC(=O)O[C@@H]1C[C@H]2C(C)(C)C(=O)C=C[C@]2(C)[C@H]2CC[C@@]3(C)[C@H](c4ccoc4)OC(=O)[C@H]4O[C@]43[C@@]21C` [gedunin], for which the “protein level of EGFR” value with EGFR was “lowered the protein levels”. The “protein level of FLT3” value in the assay on FLT3 is “lowered the protein levels”. The “sensitivity of FLT3 internal tandem duplication (ITD) mutant to inhibition” value in the assay on FLT3 (Ba/F3 cells, relative to non-mutant) is “increased sensitivity”. In addition, in the assay on LNCaP cells, the “colony size in soft agar” value is “inhibited colony size” and the “anchorage-independent growth of LNCaP cells (colony number)” value is recorded as “inhibited anchorage-independent growth to a similar degree as the AR competitive antagonist bicalutamide (casodex)”. Further, the “effect on the GE-HTS androgen signaling signature outside the screen” value in assay [2] is “inhibit the GE-HTS androgen signaling signature in a concentration-dependent manner”. The “ATP-binding activity of HSP90α” value at HSP90α [3] was “inhibited the ATP-binding activity”. Besides, the “competition with Cy3B-geldanamycin for binding to the ATP-binding pocket of HSP90α” value on HSP90α [4] is given as “Neither celastrol nor gedunin significantly competed”. Also, in assay [5], the “apoptosis in LNCaP cells” value was “induce apoptosis”.
